Data reported in patent publication US11873291B2, “Quinoline cGAS antagonist compounds” (ImmuneSensor Therapeutics, Inc., priority 2020, dated 2024).

Biological target: T1, recombinant human cGAS (aa147-522) (Homo sapiens, UniProt Q8N884)
T1 construct: recombinant human cGAS (aa147-522); His6-SUMO (cleaved yes); made in house; host or cells: E. coli BL21/pLys
Assay: In vitro inhibition assay of cGAS activity (ATP consumption, KinaseGlo Max)
Assay type: biochemical
Conditions: Table 3, read-out: cGAS Inhibition Results IC50
Method in brief: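 De-tagged recombinant human cGAS (aa147-522, 1.5 μg/mL) was incubated 20 min at 37 °C with herring testis DNA, 6.6 μM ATP and 0.1 mM GTP in Tris pH 7.5/MgCl2 buffer plus serial compound dilutions. Remaining ATP was read by KinaseGlo Max luminescence, and IC50 was fitted from % ATP consumption versus log concentration.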

T1 sequence (Q8N884 147-522): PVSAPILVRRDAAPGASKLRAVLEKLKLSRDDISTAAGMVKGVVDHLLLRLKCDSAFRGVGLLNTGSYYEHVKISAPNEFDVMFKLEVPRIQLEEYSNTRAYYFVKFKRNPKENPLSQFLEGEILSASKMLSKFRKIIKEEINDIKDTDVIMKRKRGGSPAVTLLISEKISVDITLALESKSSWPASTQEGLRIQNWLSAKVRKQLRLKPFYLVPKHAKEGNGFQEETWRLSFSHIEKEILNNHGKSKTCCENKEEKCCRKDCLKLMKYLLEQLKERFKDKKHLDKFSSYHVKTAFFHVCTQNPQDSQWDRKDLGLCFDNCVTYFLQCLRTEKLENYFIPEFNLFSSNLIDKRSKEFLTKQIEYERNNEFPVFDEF

| SMILES | IC50 |
| --- | --- |
| COC(=O)[C@@H]1C[C@H](O)CN1c1cc(-n2ccnc2)c2ccc(Cl)c(Cl)c2n1 [I-459] | 2000 to 30000 nM |
| CCOC(=O)[C@@H]1CC[C@H](C)N1c1cc(-n2ccnc2)c2ccc(Cl)c(Cl)c2n1 [I-460] | 2000 to 30000 nM |
| COC(=O)[C@@H]1C[C@H](C(F)(F)F)CN1c1cc(-n2ccnc2)c2ccc(Cl)c(Cl)c2n1 [I-462] | 2000 to 30000 nM |
| COC[C@@H]1CC[C@@H](C(=O)O)N1c1cc(-n2ccnc2)c2ccc(Cl)c(Cl)c2n1 [I-463] | 2000 to 30000 nM |
| Clc1ccc2c(-n3ccnc3)cc(N3CCC(c4nn[nH]n4)C3)nc2c1Cl (stereo not shown) [I-464] | < 2000 nM |
| Clc1ccc2c(-n3ccnc3)cc(N3CCC[C@H]3c3nn[nH]n3)nc2c1Cl [I-465] | < 2000 nM |
| O=C(O)[C@@H]1C[C@H](F)CN1c1cc(-n2ccnc2)c2ccc(Cl)c(Cl)c2n1 [I-466] | < 2000 nM |
| O=C(O)c1ccc(C2CCCN2c2cc(-n3ccnc3)c3ccc(Cl)c(Cl)c3n2)s1 (stereo not shown) [I-468] | 2000 to 30000 nM |
| COC(=O)[C@@H]1C[C@@H](O)CN1c1cc(-n2ccnc2)c2ccc(Cl)c(Cl)c2n1 [I-472] | 2000 to 30000 nM |
| O=C(O)C12CC(CN1c1cc(-n3ccnc3)c3ccc(Cl)c(Cl)c3n1)C2 [I-474] | 2000 to 30000 nM |
| CC12CN(c3cc(-n4ccnc4)c4ccc(Cl)c(Cl)c4n3)C(C(=O)O)(C1)C2 [I-475] | 2000 to 30000 nM |
| O=C(O)[C@@H]1Cc2ccccc2N1c1cc(-n2ccnc2)c2ccc(Cl)c(Cl)c2n1 [I-476] | 2000 to 30000 nM |
| CC1(C)C[C@@H](C(=O)O)N(c2cc(-n3ccnc3)c3ccc(Cl)c(Cl)c3n2)C1 [I-479] | < 2000 nM |
| O=C(O)[C@@H]1[C@H]2C[C@H]2CN1c1cc(-n2ccnc2)c2ccc(Cl)c(Cl)c2n1 [I-480] | < 2000 nM |
| C[C@@H]1C[C@@H](C(=O)O)N(c2cc(-n3ccnc3)c3ccc(Cl)c(Cl)c3n2)C1 [I-481] | < 2000 nM |
| C[C@H]1CCN(c2cc(-n3ccnc3)c3ccc(Cl)c(Cl)c3n2)[C@@H]1C(=O)O [I-482] | < 2000 nM |
| CC1(C)CCN(c2cc(-n3ccnc3)c3ccc(Cl)c(Cl)c3n2)C1C(=O)O (stereo not shown) [I-483] | 2000 to 30000 nM |
| CC(C)(O)[C@@H]1CCCN1c1cc(-n2ccnc2)c2ccc(Cl)c(Cl)c2n1 [I-484] | 2000 to 30000 nM |
| O=C(O)[C@@H]1CSCN1c1cc(-n2ccnc2)c2ccc(Cl)c(Cl)c2n1 [I-485] | < 2000 nM |
| O=C(O)[C@@H]1SCCN1c1cc(-n2ccnc2)c2ccc(Cl)c(Cl)c2n1 [I-486] | < 2000 nM |
| O=C(O)[C@@H]1CC[C@H](c2ccccc2)N1c1cc(-n2ccnc2)c2ccc(Cl)c(Cl)c2n1 [I-487] | < 2000 nM |
| O=C1CC2CCC(C1)N2c1cc(-n2ccnc2)c2ccc(Cl)c(Cl)c2n1 [I-488] | < 2000 nM |
| OC1CC2CCC(C1)N2c1cc(-n2ccnc2)c2ccc(Cl)c(Cl)c2n1 (stereo not shown) [I-489] | < 2000 nM |
| OC1CC2CCC(C1)N2c1cc(-n2ccnc2)c2ccc(Cl)c(Cl)c2n1 (stereo not shown) [I-490] | < 2000 nM |

Second part, the compound after the results:

| IC50 | SMILES |
| --- | --- |
| < 2000 nM | O=C1CC2CCCC(C1)N2c1cc(-n2ccnc2)c2ccc(Cl)c(Cl)c2n1 [I-491] |
| 2000 to 30000 nM | OC1CC2CCCC(C1)N2c1cc(-n2ccnc2)c2ccc(Cl)c(Cl)c2n1 (stereo not shown) [I-492] |
| < 2000 nM | O=C(O)C1CC2CCC(C1)N2c1cc(-n2ccnc2)c2ccc(Cl)c(Cl)c2n1 (stereo not shown) [I-493] |
| < 2000 nM | O=C(O)C1CC2CCC1N2c1cc(-n2ccnc2)c2ccc(Cl)c(Cl)c2n1 (stereo not shown) [I-494] |
| < 2000 nM | N#C[C@@H]1CCCN1c1cc(-n2ccnc2)c2ccc(Cl)c(Cl)c2n1 [I-495] |
| 2000 to 30000 nM | FC(F)(F)[C@@H]1CCCN1c1cc(-n2ccnc2)c2ccc(Cl)c(Cl)c2n1 [I-496] |
| 2000 to 30000 nM | COC(=O)[C@H]1[C@H](O)CCN1c1cc(-n2ccnc2)c2ccc(Cl)c(Cl)c2n1 [I-497] |
| 2000 to 30000 nM | O=C(O)[C@H]1[C@H](O)CCN1c1cc(-n2ccnc2)c2ccc(Cl)c(Cl)c2n1 [I-498] |
| < 2000 nM | O=C(O)[C@H]1[C@@H](O)CCN1c1cc(-n2ccnc2)c2ccc(Cl)c(Cl)c2n1 [I-499] |
| 2000 to 30000 nM | COC(=O)[C@H]1[C@@H](O)CCN1c1cc(-n2ccnc2)c2ccc(Cl)c(Cl)c2n1 [I-500] |
